Experimental data as given in ChEMBL document CHEMBL4507270 (2021).

What was measured:
[1] = target: Homeodomain-interacting protein kinase 4 (Homo sapiens) (UniProt Q8NE63)
[2] = target: Calcium/calmodulin-dependent protein kinase type II subunit delta (Homo sapiens) (UniProt Q13557)
[3] = target: Misshapen-like kinase 1 (Homo sapiens) (UniProt Q8N4C8)
[4] = target: Serine/threonine-protein kinase PAK 2 (Homo sapiens) (UniProt Q13177)
[5] = system: Tyrosine-protein kinase ABL1 (Homo sapiens), P00519 [F317I]
[6] = target: Myosin-IIIb (Homo sapiens) (UniProt Q8WXR4)
Chain of Myosin-IIIb (Homo sapiens) (Q8WXR4 whole entry): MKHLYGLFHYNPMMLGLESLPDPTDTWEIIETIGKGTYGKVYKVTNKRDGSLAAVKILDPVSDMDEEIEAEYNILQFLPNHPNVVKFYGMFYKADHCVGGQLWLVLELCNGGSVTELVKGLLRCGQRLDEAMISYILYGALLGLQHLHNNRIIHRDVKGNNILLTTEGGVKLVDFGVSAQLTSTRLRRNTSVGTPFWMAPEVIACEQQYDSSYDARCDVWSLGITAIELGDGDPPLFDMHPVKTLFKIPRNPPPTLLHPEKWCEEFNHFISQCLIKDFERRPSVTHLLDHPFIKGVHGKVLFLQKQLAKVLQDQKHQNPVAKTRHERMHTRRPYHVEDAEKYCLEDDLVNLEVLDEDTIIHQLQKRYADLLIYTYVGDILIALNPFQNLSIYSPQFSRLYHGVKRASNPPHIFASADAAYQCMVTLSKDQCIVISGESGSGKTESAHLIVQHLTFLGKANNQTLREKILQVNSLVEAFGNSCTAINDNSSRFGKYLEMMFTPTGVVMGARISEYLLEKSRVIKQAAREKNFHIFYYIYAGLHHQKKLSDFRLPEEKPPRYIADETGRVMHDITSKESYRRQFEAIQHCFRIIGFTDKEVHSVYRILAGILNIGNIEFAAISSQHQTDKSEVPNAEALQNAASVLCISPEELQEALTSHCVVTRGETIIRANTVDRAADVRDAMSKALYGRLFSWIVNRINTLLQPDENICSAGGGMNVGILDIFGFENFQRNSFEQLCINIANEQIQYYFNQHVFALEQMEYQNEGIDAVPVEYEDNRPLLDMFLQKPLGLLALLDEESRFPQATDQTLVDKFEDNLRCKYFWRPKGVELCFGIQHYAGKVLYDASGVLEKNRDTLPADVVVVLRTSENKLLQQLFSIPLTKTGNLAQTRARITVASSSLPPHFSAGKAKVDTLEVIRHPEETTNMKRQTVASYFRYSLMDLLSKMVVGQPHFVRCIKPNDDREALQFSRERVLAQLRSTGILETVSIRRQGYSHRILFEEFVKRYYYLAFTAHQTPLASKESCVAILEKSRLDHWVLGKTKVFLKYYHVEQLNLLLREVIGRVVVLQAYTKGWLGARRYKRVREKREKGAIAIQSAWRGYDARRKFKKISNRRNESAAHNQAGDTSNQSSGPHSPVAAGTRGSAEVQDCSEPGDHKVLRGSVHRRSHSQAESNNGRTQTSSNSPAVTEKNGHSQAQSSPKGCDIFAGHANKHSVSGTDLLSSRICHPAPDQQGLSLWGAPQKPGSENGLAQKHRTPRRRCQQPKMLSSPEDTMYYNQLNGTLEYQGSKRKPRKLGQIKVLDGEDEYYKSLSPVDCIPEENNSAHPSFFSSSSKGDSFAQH

[7] = target: Serine/threonine-protein kinase DCLK3 (Homo sapiens) (UniProt Q9C098)
[8] = target: Cyclin-dependent kinase 2 (Homo sapiens) (UniProt P24941)
[9] = target: Casein kinase I isoform alpha-like (Homo sapiens) (UniProt Q8N752)
[10] = target: Serine/threonine-protein kinase ULK2 (Homo sapiens) (UniProt Q8IYT8)
[11] = target: Serine/threonine-protein kinase ULK3 (Homo sapiens) (UniProt Q6PHR2)
Chain of Serine/threonine-protein kinase ULK3 (Homo sapiens) (Q6PHR2 whole entry): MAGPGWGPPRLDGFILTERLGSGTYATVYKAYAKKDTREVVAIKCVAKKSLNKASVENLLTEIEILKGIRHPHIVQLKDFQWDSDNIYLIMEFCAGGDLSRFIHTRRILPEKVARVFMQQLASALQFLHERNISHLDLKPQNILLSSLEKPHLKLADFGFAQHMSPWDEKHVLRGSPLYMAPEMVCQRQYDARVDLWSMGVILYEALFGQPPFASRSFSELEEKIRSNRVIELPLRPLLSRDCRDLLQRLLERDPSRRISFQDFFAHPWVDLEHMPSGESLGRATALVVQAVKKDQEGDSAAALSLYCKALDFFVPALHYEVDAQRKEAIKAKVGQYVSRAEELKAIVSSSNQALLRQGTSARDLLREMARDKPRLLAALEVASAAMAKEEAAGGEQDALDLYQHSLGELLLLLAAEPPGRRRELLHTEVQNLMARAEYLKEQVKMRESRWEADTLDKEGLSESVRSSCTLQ

[12] = system: Mast/stem cell growth factor receptor Kit (Homo sapiens), P10721 [A829P]
Chain of Mast/stem cell growth factor receptor Kit (Homo sapiens), P10721 [A829P] (P10721 whole entry A829P): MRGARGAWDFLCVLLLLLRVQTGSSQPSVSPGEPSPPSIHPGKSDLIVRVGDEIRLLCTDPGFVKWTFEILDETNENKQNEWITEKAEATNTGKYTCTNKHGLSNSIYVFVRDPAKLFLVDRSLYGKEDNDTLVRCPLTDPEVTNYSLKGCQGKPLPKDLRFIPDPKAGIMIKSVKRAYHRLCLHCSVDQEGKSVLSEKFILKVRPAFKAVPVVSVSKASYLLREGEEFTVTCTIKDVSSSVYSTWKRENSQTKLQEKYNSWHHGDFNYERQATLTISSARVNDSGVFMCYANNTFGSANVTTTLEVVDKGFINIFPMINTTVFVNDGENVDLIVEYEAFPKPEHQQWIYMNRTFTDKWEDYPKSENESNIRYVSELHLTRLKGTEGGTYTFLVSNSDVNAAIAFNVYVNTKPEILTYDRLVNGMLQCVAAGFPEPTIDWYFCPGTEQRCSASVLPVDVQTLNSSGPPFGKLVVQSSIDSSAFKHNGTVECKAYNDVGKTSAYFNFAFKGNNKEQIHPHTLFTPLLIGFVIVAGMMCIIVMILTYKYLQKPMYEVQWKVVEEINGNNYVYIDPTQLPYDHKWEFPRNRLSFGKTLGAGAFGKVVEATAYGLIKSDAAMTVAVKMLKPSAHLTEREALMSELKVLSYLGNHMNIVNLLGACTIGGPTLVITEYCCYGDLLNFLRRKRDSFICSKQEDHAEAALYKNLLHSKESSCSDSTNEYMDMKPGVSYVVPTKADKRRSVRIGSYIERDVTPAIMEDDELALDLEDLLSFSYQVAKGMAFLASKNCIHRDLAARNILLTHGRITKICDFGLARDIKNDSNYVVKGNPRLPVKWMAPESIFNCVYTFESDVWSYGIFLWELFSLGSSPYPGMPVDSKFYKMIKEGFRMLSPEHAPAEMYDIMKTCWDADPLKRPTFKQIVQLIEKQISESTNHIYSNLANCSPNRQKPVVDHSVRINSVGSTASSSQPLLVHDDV

[13] = target: Ephrin type-B receptor 4 (Homo sapiens) (UniProt P54760)
[14] = target: Myosin light chain kinase 2, skeletal/cardiac muscle (Homo sapiens) (UniProt Q9H1R3)
[15] = target: Tyrosine-protein kinase Lyn (Homo sapiens) (UniProt P07948)
Chain of Tyrosine-protein kinase Lyn (Homo sapiens) (P07948 2-512 limits assumed): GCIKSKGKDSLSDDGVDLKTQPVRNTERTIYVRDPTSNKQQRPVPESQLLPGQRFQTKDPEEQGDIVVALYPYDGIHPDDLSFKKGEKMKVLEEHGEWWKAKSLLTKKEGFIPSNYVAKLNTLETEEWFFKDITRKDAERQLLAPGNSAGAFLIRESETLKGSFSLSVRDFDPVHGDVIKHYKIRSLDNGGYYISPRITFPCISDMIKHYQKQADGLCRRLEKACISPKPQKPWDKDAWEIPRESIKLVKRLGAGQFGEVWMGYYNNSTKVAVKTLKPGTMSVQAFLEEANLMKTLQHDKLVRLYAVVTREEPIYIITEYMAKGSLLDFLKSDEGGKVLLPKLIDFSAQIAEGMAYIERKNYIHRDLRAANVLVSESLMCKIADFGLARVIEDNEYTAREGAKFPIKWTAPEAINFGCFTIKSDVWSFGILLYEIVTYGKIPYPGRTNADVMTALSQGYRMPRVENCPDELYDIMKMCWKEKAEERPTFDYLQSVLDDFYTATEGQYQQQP

[16] = target: Ephrin type-B receptor 3 (Homo sapiens) (UniProt P54753)
[17] = target: Serine/threonine-protein kinase 32B (Homo sapiens) (UniProt Q9NY57)
[18] = target: Phosphatidylinositol 4,5-bisphosphate 3-kinase catalytic subunit alpha isoform (Homo sapiens) (UniProt P42336)
[19] = target: Tyrosine-protein kinase receptor TYRO3 (Homo sapiens) (UniProt Q06418)
[20] = target: Mitotic checkpoint serine/threonine-protein kinase BUB1 (Homo sapiens) (UniProt O43683)
[21] = system: Phosphatidylinositol 4,5-bisphosphate 3-kinase catalytic subunit alpha isoform (Homo sapiens), P42336 [E545A]
[22] = target: TGF-beta receptor type-2 (Homo sapiens) (UniProt P37173)
[23] = system: Epidermal growth factor receptor (Homo sapiens), P00533 [UNDEFINED MUTATION]
[24] = system: Tyrosine-protein kinase ABL1 (Homo sapiens), P00519 [Q252H]
[25] = target: Calcium/calmodulin-dependent protein kinase type IV (Homo sapiens) (UniProt Q16566)
[26] = target: Serine/threonine-protein kinase N1 (Homo sapiens) (UniProt Q16512)
[27] = target: Activin receptor type-1B (Homo sapiens) (UniProt P36896)
[28] = target: Histamine H2 receptor (Homo sapiens) (UniProt P25021); conditions: Compound concentration 10.0 uM
Chain of Histamine H2 receptor (Homo sapiens) (P25021 whole entry): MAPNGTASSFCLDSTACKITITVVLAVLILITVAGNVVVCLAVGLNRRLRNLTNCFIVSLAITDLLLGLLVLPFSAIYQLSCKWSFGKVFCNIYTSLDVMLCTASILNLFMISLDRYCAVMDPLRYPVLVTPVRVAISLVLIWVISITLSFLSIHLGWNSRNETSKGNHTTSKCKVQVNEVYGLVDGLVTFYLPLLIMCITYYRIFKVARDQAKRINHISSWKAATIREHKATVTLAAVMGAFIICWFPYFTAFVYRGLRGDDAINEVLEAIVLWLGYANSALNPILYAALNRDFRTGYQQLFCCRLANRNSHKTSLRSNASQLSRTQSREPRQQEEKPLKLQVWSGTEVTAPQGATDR

[29] = target: Dual specificity mitogen-activated protein kinase kinase 4 (Homo sapiens) (UniProt P45985)
Chain of Dual specificity mitogen-activated protein kinase kinase 4 (Homo sapiens) (P45985 whole entry): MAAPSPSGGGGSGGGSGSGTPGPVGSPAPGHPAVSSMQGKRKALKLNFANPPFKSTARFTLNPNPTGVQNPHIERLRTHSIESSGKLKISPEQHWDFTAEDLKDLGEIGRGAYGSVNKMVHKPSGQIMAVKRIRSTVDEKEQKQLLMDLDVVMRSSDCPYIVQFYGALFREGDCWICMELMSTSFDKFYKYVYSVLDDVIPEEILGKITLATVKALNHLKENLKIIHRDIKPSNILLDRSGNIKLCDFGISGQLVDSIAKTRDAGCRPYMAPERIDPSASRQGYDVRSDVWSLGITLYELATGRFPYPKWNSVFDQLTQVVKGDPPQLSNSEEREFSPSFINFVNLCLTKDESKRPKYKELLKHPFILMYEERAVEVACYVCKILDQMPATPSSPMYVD

[30] = target: Citron Rho-interacting kinase (Homo sapiens) (UniProt O14578)
[31] = target: Mitogen-activated protein kinase kinase kinase 9 (Homo sapiens) (UniProt P80192)
[32] = target: Dual specificity tyrosine-phosphorylation-regulated kinase 1A (Homo sapiens) (UniProt Q13627)
[33] = target: Non-receptor tyrosine-protein kinase TYK2 (Homo sapiens) (UniProt P29597)
[34] = target: 1-phosphatidylinositol 3-phosphate 5-kinase (Homo sapiens) (UniProt Q9Y2I7)
[35] = target: Serine/threonine-protein kinase PLK2 (Homo sapiens) (UniProt Q9NYY3)
[36] = system: Epidermal growth factor receptor (Homo sapiens), P00533 [G719C]
[37] = target: Rhodopsin kinase GRK7 (Homo sapiens) (UniProt Q8WTQ7)
[38] = target: Leukocyte tyrosine kinase receptor (Homo sapiens) (UniProt P29376)
[39] = target: Tyrosine-protein kinase HCK (Homo sapiens) (UniProt P08631)
[40] = target: Ephrin type-B receptor 1 (Homo sapiens) (UniProt P54762)
[41] = target: Homeodomain-interacting protein kinase 2 (Homo sapiens) (UniProt Q9H2X6)
[42] = target: Megakaryocyte-associated tyrosine-protein kinase (Homo sapiens) (UniProt P42679)
Chain of Megakaryocyte-associated tyrosine-protein kinase (Homo sapiens) (P42679 whole entry): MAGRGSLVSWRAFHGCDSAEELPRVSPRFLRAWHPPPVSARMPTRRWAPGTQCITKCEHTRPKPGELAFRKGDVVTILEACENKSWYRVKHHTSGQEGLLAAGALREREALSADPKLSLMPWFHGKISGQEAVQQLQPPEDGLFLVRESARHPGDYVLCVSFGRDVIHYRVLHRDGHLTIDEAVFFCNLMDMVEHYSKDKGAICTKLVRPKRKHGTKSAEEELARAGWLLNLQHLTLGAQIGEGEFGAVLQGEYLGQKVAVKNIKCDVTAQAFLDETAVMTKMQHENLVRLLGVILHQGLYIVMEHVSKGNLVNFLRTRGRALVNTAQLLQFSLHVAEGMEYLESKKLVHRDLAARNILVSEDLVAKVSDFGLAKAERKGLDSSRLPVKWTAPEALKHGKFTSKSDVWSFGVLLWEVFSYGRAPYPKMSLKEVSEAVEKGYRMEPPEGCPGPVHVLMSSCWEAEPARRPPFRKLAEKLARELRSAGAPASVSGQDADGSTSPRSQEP

[43] = target: Serine/threonine-protein kinase 17B (Homo sapiens) (UniProt O94768)
Chain of Serine/threonine-protein kinase 17B (Homo sapiens) (O94768 whole entry): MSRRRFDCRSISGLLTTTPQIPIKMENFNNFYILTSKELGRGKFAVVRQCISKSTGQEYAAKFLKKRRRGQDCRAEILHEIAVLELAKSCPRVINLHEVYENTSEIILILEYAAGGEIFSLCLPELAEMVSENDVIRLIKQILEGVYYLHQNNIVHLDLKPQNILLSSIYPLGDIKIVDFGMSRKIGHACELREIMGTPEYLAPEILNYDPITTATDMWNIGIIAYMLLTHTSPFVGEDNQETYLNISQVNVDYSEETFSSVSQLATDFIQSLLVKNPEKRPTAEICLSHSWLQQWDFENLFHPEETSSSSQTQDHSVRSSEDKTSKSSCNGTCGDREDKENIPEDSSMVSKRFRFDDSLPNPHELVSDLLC

[44] = target: Calcium/calmodulin-dependent protein kinase kinase 2 (Homo sapiens) (UniProt Q96RR4)
[45] = target: Discoidin domain-containing receptor 2 (Homo sapiens) (UniProt Q16832)
[46] = Compound concentration 1000.0 nM
[47] = Compound concentration 100.0 nM

For `Cc1cc(NC(=O)c2cccc(S(F)(F)(F)(F)F)c2)cc(-n2ccn3nc(-c4cccnc4)cc23)c1` [BAY-309], the residual activity [1, 46] was 100%, the residual activity [2, 46] was 80% and the residual activity [3, 46] was 82%. The residual activity [4, 46] was 100%, the residual activity [5, 46] was 100% and the residual activity [6, 46] was 73.8%. For the same compound, the residual activity [7, 46] was 100%, the residual activity [8, 46] was 100% and the residual activity [9, 46] was 100%. For the same compound, the residual activity [10, 46] was 73.7%, the residual activity [11, 46] was 75.2% and the residual activity [12, 46] was 100%. For the same compound, the residual activity [13, 46] was 100%, the residual activity [14, 46] was 100% and the residual activity [15, 46] was 100%. The residual activity [16, 46] was 100%, the residual activity [17, 46] was 100% and the residual activity [18, 46] was 100%. It also gave a residual activity [19, 46] of 88.4%, a residual activity [20, 46] of 100% and a residual activity [21, 46] of 69.2%. For the same compound, the residual activity [22, 46] was 94.5%, the residual activity [23, 46] was 95.1% and the residual activity [24, 46] was 49.2%. The residual activity [25, 46] was 80.5%, the residual activity [26, 46] was 100% and the residual activity [27, 46] was 100%. It also gave an inhibition [28] of 46.1%, a residual activity [29, 46] of 76% and a residual activity [30, 46] of 60.7%. For the same compound, the residual activity [31, 46] was 77.7%, the residual activity [32, 46] was 100% and the residual activity [33, 46] was 51%. The residual activity [34, 46] was 100%, the residual activity [35, 46] was 100% and the residual activity [36, 46] was 94.2%. It also gave a residual activity [37, 46] of 100%, a residual activity [38, 46] of 100% and a residual activity [39, 46] of 98.7%. It also gave a residual activity [40, 46] of 100%, a residual activity [41, 46] of 85% and a residual activity [42, 46] of 100%. For the same compound, the residual activity [43, 46] was 100%, the residual activity [44, 46] was 99.6% and the residual activity [45, 46] was 18.2%.
In the case of `Cc1cc(C)c(-n2ccn3nc(-c4cccnc4)cc23)cc1NC(=O)c1cc(C#N)cc(S(F)(F)(F)(F)F)c1` [BAY-826], the residual activity [1, 47] is reported as 95.6%, the residual activity [2, 47] is reported as 89.1% and the residual activity [3, 47] is reported as 88.9%. The residual activity [4, 47] was 89.8%, the residual activity [5, 47] was 76.4% and the residual activity [6, 47] was 82.4%. The residual activity [7, 47] was 83.5%, the residual activity [8, 47] was 99% and the residual activity [9, 47] was 88.4%. For the same compound, the residual activity [10, 47] was 100%, the residual activity [11, 47] was 100% and the residual activity [12, 47] was 50.9%. It also gave a residual activity [13, 47] of 99.6%, a residual activity [14, 47] of 100% and a residual activity [15, 47] of 46%. It also gave a residual activity [16, 47] of 100%, a residual activity [17, 47] of 94.3% and a residual activity [18, 47] of 87.9%. It also gave a residual activity [19, 47] of 72.4%, a residual activity [20, 47] of 99.8% and a residual activity [21, 47] of 73%. It also gave a residual activity [22, 47] of 78.6%, a residual activity [23, 47] of 85.5% and a residual activity [24, 47] of 31.4%. For the same compound, the residual activity [25, 47] was 93.9%, the residual activity [26, 47] was 96.7% and the residual activity [27, 47] was 100%. The inhibition [28] was 25.6%, the residual activity [29, 47] was 74.7% and the residual activity [30, 47] was 69.9%. For the same compound, the residual activity [31, 47] was 79.5%, the residual activity [32, 47] was 82.8% and the residual activity [33, 47] was 76.9%. It also gave a residual activity [34, 47] of 74.9%, a residual activity [35, 47] of 83.3% and a residual activity [36, 47] of 91.6%. The residual activity [37, 47] was 65.6%, the residual activity [38, 47] was 32.8% and the residual activity [39, 47] was 72.1%. It also gave a residual activity [40, 47] of 100%, a residual activity [41, 47] of 86.2% and a residual activity [42, 47] of 80.4%. For the same compound, the residual activity [43, 47] was 91.4%, the residual activity [44, 47] was 89% and the residual activity [45, 47] was 1.8%.
